Experimental data from PubChem BioAssay (NCI).
Several values for one entry are separate records, joined by “and”; a condition that tells them apart may be missing. Equal entries are not always repeated.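 Each compound was tested at five concentrations against cells in 96-well plates for 48 hours. GI50 marks 50% less growth. TGI: total growth inhibition.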

Experiments:
Experiment in all cases: NCI tumour cell line growth inhibition, 48 h
NCI-H522 lung = tested on: NCI-H522 lung
CAKI-1 renal = tested on: CAKI-1 renal
MALME-3M melanoma = tested on: MALME-3M melanoma
UACC-62 melanoma = tested on: UACC-62 melanoma
A498 renal = tested on: A498 renal
COLO 205 colon = tested on: COLO 205 colon
HS 578T breast = tested on: HS 578T breast
SN12C renal = tested on: SN12C renal
NCI-H23 lung = tested on: NCI-H23 lung
RXF 393 renal = tested on: RXF 393 renal

Compound | GI50 (NCI-H522 lung) | TGI (NCI-H522 lung) | GI50 (CAKI-1 renal) | TGI (CAKI-1 renal) | GI50 (MALME-3M melanoma) | TGI (MALME-3M melanoma) | GI50 (UACC-62 melanoma) | TGI (UACC-62 melanoma) | GI50 (A498 renal) | TGI (A498 renal) | GI50 (COLO 205 colon) | TGI (COLO 205 colon) | GI50 (HS 578T breast) | TGI (HS 578T breast) | GI50 (SN12C renal) | TGI (SN12C renal) | GI50 (NCI-H23 lung) | TGI (NCI-H23 lung) | GI50 (RXF 393 renal) | TGI (RXF 393 renal)
O=C(CCCCCCN1CC(=O)N2[C@@H](c3ccc(Cl)c(Cl)c3)c3[nH]c4ccccc4c3C[C@H]2C1=O)NO | 3.21 µM | 10.5 µM | 3.43 µM | 8.71 µM | 2.7 µM | 14.8 µM | 1.66 µM | 7.07 µM | 5.28 µM | 9.92 µM | 3.5 µM | 10.1 µM | 3.52 µM | 15.6 µM | 4.33 µM | 14.5 µM | 4.73 µM | 13.5 µM | 1.73 µM | 6.04 µM
Cc1cc(N=Nc2ccccc2C)ccc1N | 6.94 µM | 22.9 µM | 7.38 µM | 46.5 µM and 28.7 µM | 16.2 µM | 38.6 µM and 39 µM |  | 25.1 µM and 30.6 µM | 4.38 µM | 44.3 µM and 23.8 µM |  | 33.6 µM and 32.4 µM | 13.3 µM | 32.1 µM and 45.9 µM | 2.86 µM | 27.4 µM and 16.3 µM | 16.5 µM | 14.7 µM and 42.3 µM | 15.1 µM | 22.9 µM and 33.7 µM
O=C(O)Cc1cccnc1 |  | > 100 µM |  | > 100 µM |  | > 100 µM |  | > 100 µM |  | > 100 µM |  | > 100 µM |  | > 100 µM |  | > 100 µM |  | > 100 µM |  | > 100 µM
N#CC1=C(/N=C/c2ccccc2)Oc2c(ccc3ccccc23)C1c1ccccc1 (stereo not drawn) | 0.298 µM |  | 0.31 µM | > 53.7 µM | 0.67 µM | > 100 µM | 0.653 µM | > 100 µM | 0.191 µM | 0.747 µM | 0.594 µM |  | 0.377 µM | > 100 µM | 0.822 µM | > 100 µM | 0.715 µM | > 100 µM |  | 
C[CH2][Sn]([CH2]C)([O]C(=O)c1ccccc1OC)[O][Sn]([CH2]C)([CH2]C)[O]C(=O)c1ccccc1OC | 3.02 µM | 14.7 µM | 34.6 µM | > 100 µM | 27.6 µM | > 100 µM | > 100 µM | > 100 µM | 44.4 µM | > 100 µM | > 100 µM | > 100 µM |  |  | > 100 µM | > 100 µM | > 100 µM | > 100 µM | 43.3 µM | > 100 µM
COc1cc2c(cc1OCCCCN1CCN(C(=S)SCCC(C#N)(c3ccccc3)c3ccccc3)CC1)N=C[C@@H]1CCCN1C2=O | 0.196 µM | 0.642 µM | 0.597 µM | 2.7 µM | 1.36 µM | 3.04 µM | 1.32 µM | 3.55 µM | 1.19 µM | 2.81 µM | 1.4 µM | 5.66 µM |  |  | 1.16 µM | 4.54 µM |  |  | 0.414 µM | 2.01 µM
Cc1ccc(C)c(N2C(=O)C(=O)C(c3nc4ccccc4s3)/C(=N/NC(=O)NN)C2=O)c1 (stereo not drawn) |  | > 100 µM |  | > 100 µM |  | > 100 µM |  | > 100 µM |  | > 100 µM |  | > 100 µM |  |  |  | > 100 µM |  | > 100 µM |  | > 100 µM
Cc1nc(C(=O)O)c2ccccc2n1 |  |  |  | > 100 µM |  | > 100 µM |  | > 100 µM |  | > 100 µM |  | > 100 µM |  |  |  | > 100 µM |  | > 100 µM |  | > 100 µM
C=CNC(=O)NC(=O)CSc1nnc(-c2ccccc2NC(=O)C(F)(F)F)c(=O)[nH]1 |  | > 100 µM |  | > 100 µM |  | 28.8 µM |  | > 100 µM |  |  |  | > 100 µM |  |  |  | > 100 µM |  | > 100 µM |  | > 100 µM
COCOCC/C=C/C=O |  | > 100 µM |  |  |  | > 100 µM |  | > 100 µM |  | > 100 µM |  | > 100 µM |  |  |  | > 100 µM |  | > 100 µM |  | > 100 µM
NC(=O)NNC(=O)NC12CC3CC(CC(C3)C1)C2 |  | > 100 µM |  | > 100 µM |  | > 100 µM |  | > 100 µM |  | > 100 µM |  | > 100 µM |  |  |  | > 100 µM |  | > 100 µM |  | > 100 µM
COc1ccc(N(CC(=O)NCCC[Te]c2ccccc2)C(=O)CNC(=O)OC(C)(C)C)cc1 | 2.56 µM | 10.6 µM | 2.1 µM | 5.6 µM | 15.7 µM | 32.8 µM | 1.65 µM | 3.79 µM | 2.28 µM | 5.35 µM | 2.01 µM | 3.83 µM | 2.77 µM | 7.31 µM | 2.06 µM | 4.97 µM | 2.5 µM | 6.61 µM |  | 
N#CC(c1ccccn1)c1nc2ccccc2[nH]1 (stereo not drawn) |  | > 100 µM |  | > 100 µM |  | > 100 µM |  | > 100 µM |  | > 100 µM |  | > 100 µM |  |  |  | > 100 µM |  | > 100 µM |  | 
OC(C#Cc1ccccc1)(c1ccccc1)c1ccccc1 |  | > 100 µM |  | 61.8 µM |  | 60.2 µM |  | > 100 µM |  | 83.4 µM |  | > 100 µM |  | > 100 µM |  | > 100 µM |  | > 100 µM |  | 
Cc1ccc(S(=O)(=O)N/N=C(/CC(=O)c2c(C)n([O-])c3ccccc3[n+]2=O)C(=O)Nc2ccccc2C)cc1 |  | > 100 µM |  | > 100 µM |  | > 100 µM |  | > 100 µM |  | > 100 µM |  | > 100 µM |  |  |  | > 100 µM |  | > 100 µM |  | > 100 µM
CCCCCCNC(=O)Oc1ccc(/C(=C(\C)c2ccc(Cl)cc2)c2ccc(OCCN3CCCCC3)cc2)cc1 | 6.14 µM | 13 µM | 4.03 µM | 8.25 µM | 3.36 µM | 7.7 µM | 4.03 µM | 8.59 µM |  |  | 1.44 µM | 6.44 µM | 4.22 µM | 11.6 µM | 4.22 µM | 8.68 µM | 3.89 µM | 9.61 µM | 3.3 µM | 7.55 µM
N#CCN1CCn2c1nsc2=S | 64.7 µM | > 100 µM | > 100 µM | > 100 µM |  |  | > 100 µM | > 100 µM | > 100 µM | > 100 µM | 85.5 µM | > 100 µM | > 100 µM | > 100 µM | > 100 µM | > 100 µM |  |  | > 100 µM | > 100 µM
